The values below come from patent US11401262B2, “Dimeric contrast agents” (BRACCO IMAGING S.P.A., priority 2015, dated 2022).

The structures appear in SMILES notation.

This data set can be described thus: Relaxometric properties: longitudinal relaxivity r1p measurement. The data set is classed as physicochemical. The conditions noted are these: per mM Gd; for r1p at 0.47 T 37° C., human plasma / r1p at 0.47 T 37° C., saline: 0.47 T (20 MHz); for r1p at 0.47 T 37° C., saline / r1p at 1.41 T 37° C., saline: physiologic solution; for r1p at 1.41 T 37° C., human plasma / r1p at 1.41 T 37° C., saline: 1.41 T (60 MHz). On the procedure: The relaxometric properties of some representative complex compounds according to the invention have been determined at different magnetic field strengths, e.g. including 0.47 and 1.41 T, at 37° C. and in different media (physiologic solution and human plasma) and compared with relaxivity values measured, at the same conditions, for some Gd-Complex of the market having an analogous cyclic coordination cage.
The longitudinal water proton relaxation rate (R1=1/T1) was measured at 0.47 T with a Minispec MQ-20 spectrometer (Bruker Biospin, Germany) operating at a proton Larmor frequency of 20 MHz; MR experiments at 1.41 T were performed using a Minispec MQ-60 spectrometer (Bruker Biospin, Germany) operating at a proton Larmor frequency of 60 MHz.
All test articles were used as supplied and diluted in the selected medium (physiologic solution or human plasma) by weighting the required amount of paramagnetic chelated complex to get a 5 or 10 mM starting solution.
Five different concentration samples (0.1, 0.25, 0.5, 0.75 and 1 mM) for each medium have been prepared by further dilution of the starting 5 or 10 mM solution.
Relaxivity measurements were performed at 0.47 T and 1.41 T at a preset temperature sample of 37° C., kept constant by means of a thermostatic bath connected to the sample holder of the spectrometer. The five sample solutions have been preliminary pre-heated at 37° C. in an external thermostatic bath and then left 10 minutes inside the internal bath to assure the stabilization of the temperature. Longitudinal relaxation time T1 was measured by means of a standard inversion recovery sequence, where the inversion time (TI) was varied from 10 ms to at least 5 times T1 in 15 steps. Statistical analysis (mono-exponential fitting for T1 measurement, linear fitting for the evaluation of longitudinal relaxivity) was performed by Mathematica® (Wolfram, USA). Errors on the estimated parameters were evaluated by the fitting procedure.

Consider `O=C(O)CN1CCN(CC(=O)O)CCN(CC(O)CN(CC(=O)O)CC(O)CN2CCN(CC(=O)O)CCN(CC(=O)O)CCN(CC(=O)O)CC2)CCN(CC(=O)O)CC1` (stereo not shown), for which the “r1p at 0.47 T 37° C., human plasma” value was 9.7 mM⁻¹ s⁻¹; the “r1p at 0.47 T 37° C., saline” value turned out to be 8.3 mM⁻¹ s⁻¹; the “r1p at 1.41 T 37° C., human plasma” value turned out to be 9.2 mM⁻¹ s⁻¹; the “r1p at 1.41 T 37° C., saline” value amounted to 8.5 mM⁻¹ s⁻¹.
Regarding `O=C(O)CN1CCN(CC(=O)O)CCN(CC(O)CN(CC(O)CN2CCN(CC(=O)O)CCN(CC(=O)O)CCN(CC(=O)O)CC2)CC(O)C(O)C(O)C(O)CO)CCN(CC(=O)O)CC1` (stereo not shown), the “r1p at 0.47 T 37° C., human plasma” value came out at 11.5 mM⁻¹ s⁻¹; the “r1p at 0.47 T 37° C., saline” value was found to be 9.3 mM⁻¹ s⁻¹; the “r1p at 1.41 T 37° C., human plasma” value stood at 10.8 mM⁻¹ s⁻¹; the “r1p at 1.41 T 37° C., saline” value was found to be 9.4 mM⁻¹ s⁻¹.
The like results for `O=C(O)CN1CCN(CC(=O)O)CCN(CC(O)CN(CCN(CC(=O)O)CC(O)CN2CCN(CC(=O)O)CCN(CC(=O)O)CCN(CC(=O)O)CC2)CC(=O)O)CCN(CC(=O)O)CC1` (stereo not shown) were, in that order, 10.6 mM⁻¹ s⁻¹, 7.3 mM⁻¹ s⁻¹, 10.2 mM⁻¹ s⁻¹ and 7.5 mM⁻¹ s⁻¹.
On to `O=C(O)CN1CCN(CC(=O)O)CCN(CC(O)CN(CC(O)CN2CCN(CC(=O)O)CCN(CC(=O)O)CCN(CC(=O)O)CC2)CP(=O)(O)O)CCN(CC(=O)O)CC1` (stereo not shown) [Chelate Complex 2], for which the “r1p at 0.47 T 37° C., human plasma” value was found to be 12.0 mM⁻¹ s⁻¹; the “r1p at 0.47 T 37° C., saline” value turned out to be 9.0 mM⁻¹ s⁻¹; the “r1p at 1.41 T 37° C., human plasma” value came to 11.3 mM⁻¹ s⁻¹; the “r1p at 1.41 T 37° C., saline” value was determined as 9.3 mM⁻¹ s⁻¹.
